Columns and labels:
Test in all cases: greenhouse post-emergence herbicidal test
GERDI = assay type: in vivo, Geranium dissectum; parameters: key to herbicidal activity against GERDI found: rating on a scale from 0 to 100; conditions: post emergence
Method in brief: (§1)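 Post-emergence greenhouse test: plants in loamy sand, sprayed at 1–15 cm height with aqueous spray liquor from 10% emulsion concentrates, kept at 10-25 °C or 20-35 °C by species. Damage scored 0–100 (100 = complete destruction), usually 20 days after treatment. Expected additive effect E from Colby: E=X+Y−(X·Y/100).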

ECHCG = assay type: in vivo, Echinochloa crus-galli; parameters: key to herbicidal activity against ECHCG found / herbicidal activity against ECHCH found: scale 0 to 100; conditions: post emergence; application rate a.i.: I.1 250 g/ha, B.193 15 g/ha, alone or as mixture (composition 1.193)
Method in brief: as §1

ALOMY = assay type: in vivo, Alopecurus myosuroides; parameters: key to herbicidal activity against ALOMY found: rating on a scale from 0 to 100; conditions: post emergence; application rate a.i.: I.1 250 g/ha, B.193 15 g/ha, alone or as mixture (composition 1.193)
Method in brief: as §1

DIGSA = assay type: in vivo, Digitaria sanguinalis
Protocol: (§2) The culture containers used were plastic pots containing medium loamy sand with approximately 4.6% of humus and 69.9% sand as substrate. The seeds of the test plants were sown separately for each species.
(§3) For the post-emergence treatment, the test plants were grown to a plant height of from 1 to 15 cm, depending on the plant habit, and only then treated with the active compounds which had been suspended or emulsified in water. To this end, the test plants were either sown directly, and grown in the same containers, or they were first grown separately as seedlings and transplanted into the test containers a few days prior to treatment.
(§4) Depending on the species, the plants were kept at 10-25° C. and 20-35° C., respectively.
(§5) The test period extended over 1 to 3 weeks. During this time, the plants were tended and their response to the individual treatments was evaluated 20 days after treatment except mentioned otherwise.
(§6) Evaluation was carried out using a scale from 0 to 100. 100 means no emergence of the plants, or complete destruction of at least the above-ground parts, and 0 means no damage or normal course of growth.
(§7) The respective stated components A and B, and, if appropriate, C, were formulated as a 10% by weight strength emulsion concentrate and, with addition of the amount of solvent system, introduced into the spray liquor used for applying the active compound. In the examples, the solvent used was water.
(§8) In the examples below, using the method of S. R. Colby (1967) “Calculating synergistic and antagonistic responses of herbicide combinations”, Weeds 15, p. 22 ff., the value E, which is expected if the activity of the individual active compounds is only additive, was calculated. E=X+Y−(X·Y/100)

AMBEL = assay type: in vivo, Ambrosia artemisiifolia; parameters: key: rating on a scale from 0 to 100
Protocol: as §2, §3, §4, §5, §6, §7, §8

MATCH = assay type: in vivo, Matricaria recutita; parameters: key to herbicidal activity against MATCH found: rating on a scale from 0 to 100; conditions: post emergence
Method in brief: as §1

POLPE = assay type: in vivo, Persicaria maculosa; parameters: key: scale 0 to 100
Protocol: as §2, §3, §4, §5, §6, §7, §8

AMARE = assay type: in vivo, Amaranthus retroflexus
Protocol: as §2, §3, §4, §5, §6, §7, §8

CHEAL = assay type: in vivo, Chenopodium album
Protocol: as §2, §3, §4, §5, §6, §7, §8

CONAR = assay type: in vivo, Convolvulus arvensis; parameters: key: rating on a scale from 0 to 100
Protocol: as §2, §3, §4, §5, §6, §7, §8

LOLMU = assay type: in vivo, Lolium multiflorum; conditions: a.i. g/ha: I.1 62.5, B.77 75, 20 days after treatment
Protocol: as §2, §3, §4, §5, §6, §7, §8

GALAP = assay type: in vivo, Galium aparine; parameters: key to herbicidal activity against GALAP found: rating on a scale from 0 to 100; conditions: post emergence
Method in brief: as §1

ERICA = assay type: in vivo, Conyza canadensis; parameters: key to herbicidal activity against ERICA found: rating on a scale from 0 to 100; conditions: post emergence
Method in brief: as §1

VIOAR = assay type: in vivo, Viola arvensis; parameters: key to herbicidal activity against VIOAR found / herbicidal activity against VIOLA found: rating on a scale from 0 to 100; conditions: post emergence
Method in brief: as §1

POLCO = assay type: in vivo, Polygonum convolvulus; parameters: key to herbicidal activity against POLCO found: rating on a scale from 0 to 100; conditions: post emergence
Method in brief: as §1

SASKR = assay type: in vivo, Salsola kali; parameters: key: scale 0 to 100
Protocol: as §2, §3, §4, §5, §6, §7, §8

PAPRH = assay type: in vivo, Papaver rhoeas; parameters: key: rating on a scale from 0 to 100
Method in brief: as §1

STEME = assay type: in vivo, Stellaria media; parameters: key: scale 0 to 100
Protocol: as §2, §3, §4, §5, §6, §7, §8

POLAV = assay type: in vivo, Polygonum aviculare; parameters: key: rating on a scale from 0 to 100
Protocol: as §2, §3, §4, §5, §6, §7, §8

LAMAM = assay type: in vivo, Lamium amplexicaule; parameters: key: scale 0 to 100
Protocol: as §2, §3, §4, §5, §6, §7, §8

ABUTH = assay type: in vivo, Abutilon theophrast; parameters: key to herbicidal activity against ABUTH found: rating on a scale from 0 to 100; conditions: post emergence; 200 g/ha a.i.
Method in brief: as §1

IPOHE = assay type: in vivo, Ipomoea hederacea; parameters: key to herbicidal activity against IPOHE found: rating on a scale from 0 to 100; conditions: post emergence, 20 days after treatment
Method in brief: as §1

[1] = application rate a.i.: I.1 250 g/ha, B.193 15 g/ha, alone or as mixture (composition 1.193)
[2] = a.i. g/ha: I.1 31.25, B.76 225, 20 days after treatment
[3] = a.i. g/ha: I.1 62.5, B.76 225, 20 days after treatment
[4] = a.i. g/ha: I.1 62.5, B.77 75, 20 days after treatment
[5] = a.i. g/ha: I.1 62.5, B.80 250, 20 days after treatment
[6] = application rate a.i.: I.1 31.25 g/ha, B.84 (paraquat-dichloride) 17.5 g/ha, alone or as mixture (composition 1.84)
[7] = application rate a.i.: I.1 62.5 g/ha, B.84 (paraquat-dichloride) 17.5 g/ha, alone or as mixture (composition 1.84)
[8] = a.i. g/ha: I.1 15.6, B.190 62.5, 20 days after treatment
[9] = a.i. g/ha: I.1 31.25, B.190 62.5, 20 days after treatment
[10] = a.i. g/ha: I.1 31.25, bentazon Na 125, 20 days after treatment

Cc1ccccc1CO[C@H]1C[C@]2(C(C)C)CC[C@@]1(C)O2 (racemic) [B.193]
herbicidal activity against GERDI found (GERDI; [1]): 40
herbicidal activity against ECHCG found (ECHCG): 40
herbicidal activity against ALOMY found (ALOMY): 0
herbicidal activity against DIGSA found (DIGSA; [1]): 20

COc1cc(OC)nc(NC(=O)NS(=O)(=O)c2ncccc2C(=O)N(C)C)n1 [B.51, nicosulfuron]
herbicidal activity against AMBEL found (AMBEL; 20 g/ha a.i.): 80
pest or weed control at 20 g/ha (MATCH; Matricaria chamomilla, post-emergence, 480 h, 20 g/ha a.i., read-out: herbicidal activity against MATCH found): 90%
herbicidal activity against POLPE found (POLPE; 20 g/ha a.i.): 95

CC(C)c1ccc(NC(=O)N(C)C)cc1 [B.76, isoproturon]
herbicidal activity against AMARE found (AMARE; [2]): 50%
herbicidal activity against CHEAL found (CHEAL; [2]): 65%
herbicidal activity against CHEAL found (CHEAL; [3]): 65%
herbicidal activity against CONAR found (CONAR; [3]): 65%
herbicidal activity against DIGSA found (DIGSA; [2]): 30%
herbicidal activity against DIGSA found (DIGSA; [3]): 30%

CON(C)C(=O)Nc1ccc(Cl)c(Cl)c1 [B.77, linuron]
herbicidal activity against LOLMU found (LOLMU): 35%
herbicidal activity against GALAP found (GALAP; [4]): 40%
herbicidal activity against CONAR found (CONAR; [4]): 50%

CCC(=O)Nc1ccc(Cl)c(Cl)c1 [B.80, propanil]
herbicidal activity against ERICA found (ERICA; [5]): 65%
herbicidal activity against CONAR found (CONAR; [5]): 20%
herbicidal activity against DIGSA found (DIGSA; [5]): 40%

C[n+]1ccc(-c2cc[n+](C)cc2)cc1 [B.84, paraquat-dichloride]
herbicidal activity against VIOAR found (VIOAR; [6]): 55
herbicidal activity against VIOAR found (VIOAR; [7]): 55
herbicidal activity against AMBEL found (AMBEL; [6]): 90
herbicidal activity against MATCH found (MATCH; [7]): 80
herbicidal activity against POLCO found (POLCO; [7]): 30
herbicidal activity against GALAP found (GALAP; [6]): 55
herbicidal activity against ERICA found (ERICA; [6]): 35
herbicidal activity against CONAR found (CONAR; [7]): 10
herbicidal activity against SASKR found (SASKR; [6]): 70

CS(=O)(=O)c1ccc(C(=O)C2C(=O)CCCC2=O)c([N+](=O)[O-])c1 [B.101, mesotrione]
herbicidal activity against AMBEL found (AMBEL; 9.375 g/ha a.i.): 80
pest or weed control at 9.375 g/ha (GERDI; Geranium dissectum, post-emergence, 480 h, 9.375 g/ha a.i., read-out: herbicidal activity against GERDI found): 0%
pest or weed control at 9.375 g/ha (MATCH; Matricaria chamomilla, post-emergence, 480 h, 9.375 g/ha a.i., read-out: herbicidal activity against MATCH found): 75%
herbicidal activity against PAPRH found (PAPRH; 9.375 g/ha a.i.): 35
pest or weed control at 9.375 g/ha (ERICA; Erigeron canadensis, post-emergence, 480 h, 9.375 g/ha a.i., read-out: herbicidal activity against ERICA found): 80%
herbicidal activity against SASKR found (SASKR; 9.375 g/ha a.i.): 75

Cc1cc(Cl)ccc1OCC(=O)O [B.164, MCPA]
herbicidal activity against VIOAR found (VIOAR; 100 g/ha a.i.): 60
herbicidal activity against VIOAR found (VIOAR; 200 g/ha a.i.): 65
herbicidal activity against VIOAR found (VIOAR; 400 g/ha a.i.): 70
herbicidal activity against GERDI found (GERDI; 100 g/ha a.i.): 65
herbicidal activity against MATCH found (MATCH; 400 g/ha a.i.): 50
herbicidal activity against POLCO found (POLCO; 200 g/ha a.i.): 50
herbicidal activity against POLCO found (POLCO; 400 g/ha a.i.): 50
herbicidal activity against STEME found (STEME; 100 g/ha a.i.): 50
herbicidal activity against STEME found (STEME; 200 g/ha a.i.): 60
herbicidal activity against STEME found (STEME; 400 g/ha a.i.): 80
herbicidal activity against PAPRH found (PAPRH; 100 g/ha a.i.): 60
herbicidal activity against PAPRH found (PAPRH; 200 g/ha a.i.): 65
herbicidal activity against POLAV found (POLAV; 100 g/ha a.i.): 70
herbicidal activity against POLAV found (POLAV; 200 g/ha a.i.): 85
herbicidal activity against POLAV found (POLAV; 400 g/ha a.i.): 85
herbicidal activity against GALAP found (GALAP; 400 g/ha a.i.): 30
herbicidal activity against LAMAM, found (LAMAM; 200 g/ha a.i.): 65
herbicidal activity against LAMAM, found (LAMAM; 400 g/ha a.i.): 70
herbicidal activity against POLPE found (POLPE; 200 g/ha a.i.): 65
herbicidal activity against POLPE found (POLPE; 400 g/ha a.i.): 80
herbicidal activity against ABUTH found (ABUTH): 80
herbicidal activity against CONAR found (CONAR; 200 g/ha a.i.): 90
herbicidal activity against CONAR found (CONAR; 400 g/ha a.i.): 90

Cc1ccc(NC(=O)N(C)C)cc1Cl [B.190, chlorotoluron]
herbicidal activity against AMARE found (AMARE; [8]): 40%
herbicidal activity against AMARE found (AMARE; [9]): 40%
herbicidal activity against GERDI found (GERDI; [9]): 60%
herbicidal activity against POLCO found (POLCO; [8]): 50%
herbicidal activity against POLCO found (POLCO; [9]): 50%
herbicidal activity against CHEAL found (CHEAL; [8]): 95%
herbicidal activity against IPOHE found (IPOHE; a.i. g/ha: I.1 15.6, B.190 62.5): 60%
herbicidal activity against IPOHE found (IPOHE; a.i. g/ha: I.1 31.25, B.190 62.5): 60%
herbicidal activity against STEME found (STEME; [9]): 70%
herbicidal activity against POLAV found (POLAV; [8]): 50%

CC(C)N1C(=O)c2ccccc2[N-]S1(=O)=O.[Na+] [bentazon Na, bentazon-sodium]
herbicidal activity against AMARE found (AMARE; [10]): 75%
herbicidal activity against POLCO found (POLCO; [10]): 40%
herbicidal activity against POLAV found (POLAV; [10]): 40%

Cc1nn(C)c(O)c1C(=O)c1ccc(C(F)(F)F)cc1S(C)(=O)=O [pyrasulfatole]
herbicidal activity against VIOAR found (VIOAR; 10 g/ha a.i.): 0
herbicidal activity against VIOAR found (VIOAR; 20 g/ha a.i.): 40
herbicidal activity against VIOAR found (VIOAR; 40 g/ha a.i.): 60
herbicidal activity against GERDI found (GERDI; 40 g/ha a.i.): 50
herbicidal activity against MATCH found (MATCH; 10 g/ha a.i.): 50
herbicidal activity against MATCH found (MATCH; 40 g/ha a.i.): 50
herbicidal activity against PAPRH found (PAPRH; 10 g/ha a.i.): 50
herbicidal activity against PAPRH found (PAPRH; 20 g/ha a.i.): 65
herbicidal activity against PAPRH found (PAPRH; 40 g/ha a.i.): 65
herbicidal activity against POLAV found (POLAV; 20 g/ha a.i.): 70
herbicidal activity against CONAR found (CONAR; 10 g/ha a.i.): 60
herbicidal activity against CONAR found (CONAR; 20 g/ha a.i.): 65
herbicidal activity against CONAR found (CONAR; 40 g/ha a.i.): 85
herbicidal activity against SASKAR found (SASKR; 10 g/ha a.i.): 90

— patent US10881110B2, “Herbicidal compositions comprising isoxazolo[5,4-b]pyridines” (BASF SE, priority 2014, dated 2021)
